Laboratory results from the supplement of paper PMC10307832.

Legend:
Test in all cases: relative viability (nuclei count vs DMSO), 5 days (fraction); higher = more cells survive
Daporinad + Navitoclax = compound: O=C(/C=C/c1cccnc1)NCCCCC1CCN(C(=O)c2ccccc2)CC1 [Daporinad] + CC1(C)CCC(c2ccc(Cl)cc2)=C(CN2CCN(c3ccc(C(=O)NS(=O)(=O)c4ccc(N[C@H](CCN5CCOCC5)CSc5ccccc5)c(S(=O)(=O)C(F)(F)F)c4)cc3)CC2)C1 [Navitoclax] (partner 0.5 µM)
In short: (§1)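 Lung cancer cell lines in 1536-well plates were dosed by pin tool the day after seeding, either with one drug alone or with a fixed anchor-drug dose plus five library-drug doses (not always all listed) in √10 steps. After 5 days, cells were fixed and their nuclei stained in one step (final 0.05% Triton X-100, 1% formaldehyde, 1 ug/ml Hoechst), then counted on 4× images. Relative viability is the nuclei count in treated wells divided by that in vehicle wells. Values are medians of duplicate plates.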

Daporinad + Crizotinib = compound: O=C(/C=C/c1cccnc1)NCCCCC1CCN(C(=O)c2ccccc2)CC1 [Daporinad] + C[C@@H](Oc1cc(-c2cnn(C3CCNCC3)c2)cnc1N)c1c(Cl)ccc(F)c1Cl [Crizotinib] (partner 1 µM)
In short: as §1

Daporinad + Pemetrexed = compound: O=C(/C=C/c1cccnc1)NCCCCC1CCN(C(=O)c2ccccc2)CC1 [Daporinad] + Nc1nc2[nH]cc(CCc3ccc(C(=O)N[C@@H](CCC(=O)O)C(=O)O)cc3)c2c(=O)[nH]1 [Pemetrexed] (partner 0.2 µM)
In short: as §1

R406 + Tozasertib = compound: COc1cc(Nc2ncc(F)c(Nc3ccc4c(n3)NC(=O)C(C)(C)O4)n2)cc(OC)c1OC [R406] + Cc1cc(Nc2cc(N3CCN(C)CC3)nc(Sc3ccc(NC(=O)C4CC4)cc3)n2)n[nH]1 [Tozasertib] (partner 0.1 µM)
In short: as §1

Row | Cell Line | relative viability (Daporinad + Navitoclax; first compound 0.0005 µM) | relative viability (Daporinad + Navitoclax; first compound 0.001581 µM) | relative viability (Daporinad + Navitoclax; first compound 0.005 µM) | relative viability (Daporinad + Navitoclax; first compound 0.01581 µM) | relative viability (Daporinad + Crizotinib; first compound 0.0005 µM) | relative viability (Daporinad + Crizotinib; first compound 0.001581 µM) | relative viability (Daporinad + Crizotinib; first compound 0.005 µM) | relative viability (Daporinad + Crizotinib; first compound 0.01581 µM) | relative viability (Daporinad + Pemetrexed; first compound 0.0005 µM) | relative viability (Daporinad + Pemetrexed; first compound 0.001581 µM) | relative viability (Daporinad + Pemetrexed; first compound 0.005 µM) | relative viability (Daporinad + Pemetrexed; first compound 0.01581 µM) | relative viability (R406 + Tozasertib; first compound 0.08 µM) | relative viability (R406 + Tozasertib; first compound 0.253 µM) | relative viability (R406 + Tozasertib; first compound 0.8 µM) | relative viability (R406 + Tozasertib; first compound 2.53 µM) | relative viability (R406 + Tozasertib; first compound 8 µM)
1 | NCI-H1651 | 1.14 | 1.16 | 0.813 | 0.758 | 0.881 | 0.875 | 0.825 | 0.807 | 0.602 | 0.557 | 0.659 | 0.545 | 0.719 | 0.865 | 0.641 | 0.592 | 0.496
2 | HARA | 1.15 | 1.08 | 1.14 | 0.275 | 1.05 | 1.07 | 1.07 | 0.291 | 0.24 | 0.258 | 0.227 | 0.276 | 0.115 | 0.127 | 0.13 | 0.155 | 0.123
3 | NCI-H1650 | 1.21 | 1.44 | 1.28 | 0.501 | 1.12 | 1.09 | 1 | 0.764 | 0.426 | 0.395 | 0.458 | 0.391 | 0.394 | 0.449 | 0.461 | 0.164 | 0.185
4 | NCI-H441 | – | 0.609 | 0.815 | 0.559 | 0.79 | 0.916 | 1.1 | 1.15 | 0.242 | 0.243 | 0.268 | 0.291 | 0.676 | 0.72 | 0.635 | 0.524 | 0.265
5 | LU99A | 0.71 | 0.833 | 0.94 | 0.931 | 0.527 | 0.596 | 0.685 | 0.549 | 0.165 | 0.142 | 0.18 | 0.156 | 0.274 | 0.312 | 0.246 | 0.313 | 0.265
6 | NCI-H1355 | 0.911 | 0.98 | 1.05 | 0.951 | 1.08 | 1.1 | 1.22 | 1.1 | 1 | 1.1 | 1.03 | 0.873 | 0.572 | 0.575 | 0.558 | 0.572 | 0.258
7 | HCC-78 | 0.644 | 0.935 | 0.842 | 1.05 | 0.333 | 0.362 | 0.331 | 0.428 | 0.869 | 0.897 | 0.798 | 0.874 | 0.513 | 0.432 | 0.563 | 0.404 | 0.417
8 | HCC-15 | 0.661 | 0.776 | 0.716 | 0.764 | 0.785 | 0.853 | 0.907 | 0.831 | 0.225 | 0.22 | 0.237 | 0.199 | 0.437 | 0.484 | 0.458 | 0.483 | 0.208
9 | EKVX | 0.808 | 0.914 | 0.97 | 1.11 | 0.891 | 1.01 | 1.01 | 0.993 | 0.344 | 0.468 | 0.389 | 0.343 | 0.369 | 0.45 | 0.499 | 0.317 | 0.273
10 | NCI-H2087 | 1.05 | 0.881 | 1.03 | 0.912 | 0.75 | 0.708 | 0.945 | 0.674 | 0.675 | 0.739 | 0.711 | 0.764 | 0.293 | 0.238 | 0.298 | – | 0.253
11 | LK-2 | 0.865 | 1.04 | 0.583 | 0.393 | 0.327 | 0.32 | 0.296 | 0.283 | 0.314 | 0.331 | 0.188 | 0.142 | 0.17 | 0.163 | 0.166 | 0.182 | 0.186
12 | NCI-H1437 | 1.09 | 1.1 | 1.04 | 1.07 | 0.795 | 0.956 | 1.02 | 0.855 | 0.312 | 0.313 | 0.316 | 0.332 | 0.403 | 0.433 | 0.409 | 0.417 | 0.416
13 | COR-L23 | 1.01 | 0.966 | 0.916 | 0.186 | 0.819 | 0.651 | 0.568 | 0.153 | 0.194 | 0.198 | 0.208 | 0.196 | 0.173 | 0.218 | 0.164 | 0.15 | 0.113
14 | SK-MES-1 | 1.27 | 1.16 | 1.31 | 0.852 | 0.959 | 1.01 | 1.12 | 0.9 | 1.04 | 0.816 | 0.955 | 0.64 | 0.916 | 0.942 | 0.914 | 0.719 | 0.377
15 | PC-14 | 1.05 | 1 | 0.875 | 0.721 | 0.911 | 0.876 | 0.913 | 0.651 | 0.0976 | 0.126 | 0.153 | 0.146 | 0.57 | 0.681 | 0.623 | 0.546 | 0.603
16 | A-427 | 0.964 | 1.04 | 0.722 | 0.691 | 0.857 | 0.917 | 0.994 | 0.749 | 0.981 | 1.02 | 0.937 | 0.662 | 0.254 | 0.223 | 0.188 | 0.185 | 0.169
17 | LCLC-97TM1 | 0.365 | 0.506 | 0.37 | 0.571 | 0.443 | 0.402 | 0.605 | 0.323 | 0.17 | 0.2 | 0.165 | 0.185 | 0.217 | 0.318 | 0.209 | 0.216 | 0.226
18 | RERF-LC-KJ | 1.04 | 0.984 | 1.01 | 1.18 | 0.787 | 0.861 | 1.06 | 0.803 | 0.465 | 0.482 | 0.587 | 0.568 | 0.463 | 0.653 | 0.447 | 0.481 | 0.402
